The term IC50 denotes the concentration at which inhibition is half-maximal.

The test deals with T1, human PAR4 (Homo sapiens, UniProt Q96RI0).
T1 construct: expressed in transfected cells; host or cells: HEK293 PAR4 Clone 1.2A (BMS Arctic ID 383940)
T1 sequence (Q96RI0 18-385): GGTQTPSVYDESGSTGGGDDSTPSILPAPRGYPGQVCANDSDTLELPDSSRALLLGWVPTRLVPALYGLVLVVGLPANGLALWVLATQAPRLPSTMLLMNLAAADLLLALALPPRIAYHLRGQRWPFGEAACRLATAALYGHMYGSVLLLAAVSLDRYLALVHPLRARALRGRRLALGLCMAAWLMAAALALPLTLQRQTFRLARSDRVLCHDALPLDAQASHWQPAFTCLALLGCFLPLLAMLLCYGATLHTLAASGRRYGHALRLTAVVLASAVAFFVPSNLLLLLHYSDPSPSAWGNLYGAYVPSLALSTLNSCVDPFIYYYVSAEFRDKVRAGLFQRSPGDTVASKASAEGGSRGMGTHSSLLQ
The test can be described thus: PAR4 FLIPR assay: antagonism of agonist-peptide-induced calcium mobilization in PAR4-expressing HEK293 cells. It is filed as cell-based. To be noted: H-Ala-Phe(4-F)-[…]NH2-induced intracellular calcium mobilization, 11-point curves.
On to `Cc1cc(-c2nc3cc(F)c(O[C@@H](C)[C@@H](C)OC(=O)Nc4cnc(C)nc4)cc3s2)c2ncc(C(=O)N(C)C)nc2c1` [Example 615, (2R,3S)-3-((2-(2-(dimethylcarbamoyl)-7-methylquinoxalin-5-yl)-5-fluorobenzo[d]thiazol-6-yl)oxy)butan-2-yl (2-methylpyrimidin-5-yl)carbamate], for which the IC50 is 870 nM.
Turning to `Cc1cc(-c2nc3cc(F)c(O[C@@H](C)[C@@H](C)OC(=O)Nc4cnc(C)nc4)cc3s2)c2ncc(C(=O)NCCO)nc2c1` [Example 616, (2R,3S)-3-((5-fluoro-2-(2-((2-hydroxyethyl)carbamoyl)-7-methylquinoxalin-5-yl)benzo[d]thiazol-6-yl)oxy)butan-2-yl (2-methylpyrimidin-5-yl)carbamate], the IC50 was found to be 4200 nM.
Consider `COc1cnc2c(-c3nc4c(Cl)c(F)c(OCCOC(=O)Nc5ccns5)cc4s3)cc(C)cc2n1` [Example 621, 2-((4-chloro-5-fluoro-2-(2-methoxy-7-methylquinoxalin-5-yl)benzo[d]thiazol-6-yl)oxy)ethyl isothiazol-5-ylcarbamate], for which the IC50 was 8 nM.
For `COc1cnc2c(-c3nc4c(Cl)c(F)c(OC[C@H]5CNC(=O)O5)cc4s3)cc(C)cc2n1` [Example 622, (R)-5-(((4-chloro-5-fluoro-2-(2-methoxy-7-methylquinoxalin-5-yl)benzo[d]thiazol-6-yl)oxy)methyl)oxazolidin-2-one], the IC50 came to 350 nM.
Regarding `COc1cnc2c(-c3nc4c(Cl)c(F)c(OCc5coc(N)n5)cc4s3)cc(C)cc2n1` [Example 623, 4-(((4-chloro-5-fluoro-2-(2-methoxy-7-methylquinoxalin-5-yl)benzo[d]thiazol-6-yl)oxy)methyl)oxazol-2-amine], the IC50 turned out to be 320 nM.
Turning to `CCOc1cnc2c(-c3nc4cc(F)c(O[C@@H](C)[C@@H](C)OC(=O)Nc5cnc(CCOP(=O)(O)O)nc5)cc4s3)cc(C)cc2n1` [Example 624, (2R,3S)-3-((2-(2-ethoxy-7-methylquinoxalin-5-yl)-5-fluorobenzo[d]thiazol-6-yl)oxy)butan-2-yl (2-(2-(phosphonooxy)ethyl)pyrimidin-5-yl)carbamate], the IC50 was determined as 0.7 nM.
On to `COCc1cnc2c(-c3nc4c(C)cc(OC)cc4s3)cc(Cl)cc2c1` [Example 625, 2-(6-chloro-3-(methoxymethyl)quinolin-8-yl)-6-methoxy-4-methylbenzo[d]thiazole], for which the IC50 came out at 1.8 nM.
With `COc1cnc2c(-c3nc4c(C)cc(OC)cc4s3)cc(Cl)cc2c1` [Example 626, 2-(6-chloro-3-methoxyquinolin-8-yl)-6-methoxy-4-methylbenzo[d]thiazole], the IC50 was determined as 7.2 nM.
Regarding `COc1cc(C(C)(C)O)c2nc(-c3cc(C)cc4nc(OC)cnc34)sc2c1` [Example 627, 2-(6-methoxy-2-(2-methoxy-7-methylquinoxalin-5-yl)benzo[d]thiazol-4-yl)propan-2-ol], the 50% inhibitory concentration (IC50) was found to be 1400 nM.
On to `COCc1cnc2c(-c3nc4c(C(O)C(C)(C)C)cc(OC)cc4s3)cc(C)cc2n1` (stereo not drawn) [Example 628, 1-(6-methoxy-2-(2-(methoxymethyl)-7-methylquinoxalin-5-yl)benzo[d]thiazol-4-yl)-2,2-dimethylpropan-1-ol], for which the IC50 came out at 1.4 nM.
As for `COc1cc(C(O)c2ccccc2)c2nc(-c3cc(C)cc4nc(OC)cnc34)sc2c1` (stereo not drawn) [Example 629, (6-methoxy-2-(2-methoxy-7-methylquinoxalin-5-yl)benzo[d]thiazol-4-yl) (phenyl)methanol], the IC50 stood at 2.2 nM.
For the compound `COc1cc(C(O)C(C)(C)C)c2nc(-c3cc(C)cc4nc(OC)cnc34)sc2c1` (stereo not drawn) [Example 630, 1-(6-methoxy-2-(2-methoxy-7-methylquinoxalin-5-yl)benzo[d]thiazol-4-yl)-2,2-dimethylpropan-1-ol], the IC50 is 1.4 nM.
On to `COc1cc(C(O)Cc2ccccc2)c2nc(-c3cc(C)cc4nc(OC)cnc34)sc2c1` (stereo not drawn) [Example 631, 1-(6-methoxy-2-(2-methoxy-7-methylquinoxalin-5-yl)benzo[d]thiazol-4-yl)-2-phenylethanol], for which the IC50 is 5.3 nM.
For the compound `COc1cnc2c(-c3nc4c(C(O)C(C)(C)C)c(F)c(OC)cc4s3)cc(C)cc2n1` (stereo not drawn) [Example 632, 1-(5-fluoro-6-methoxy-2-(2-methoxy-7-methylquinoxalin-5-yl)benzo[d]thiazol-4-yl)-2,2-dimethylpropan-1-ol], the IC50 was determined as 10 nM.
Regarding `COc1cc(C(F)C(C)(C)C)c2nc(-c3cc(C)cc4nc(OC)cnc34)sc2c1` (stereo not drawn) [Example 634, 4-(1-fluoro-2,2-dimethylpropyl)-6-methoxy-2-(2-methoxy-7-methylquinoxalin-5-yl)benzo[d]thiazole], the half-inhibitory concentration (IC50) is 44 nM.
As for `COCc1cnc2c(-c3nc4c(OCc5ccccc5)cc(OC)cc4s3)cc(C)cc2n1` [Example 635, 4-(benzyloxy)-6-methoxy-2-(2-(methoxymethyl)-7-methylquinoxalin-5-yl)benzo[d]thiazole], the IC50 was 10 nM.
Consider `COc1cc(C(O)C(C)(C)C)c2nc(-c3cc(Cl)cc4nc(OC)cnc34)sc2c1` (stereo not drawn) [Example 636, 1-(2-(7-chloro-2-methoxyquinoxalin-5-yl)-6-methoxybenzo[d]thiazol-4-yl)-2,2-dimethylpropan-1-ol], for which the IC50 worked out at 3 nM.
With `COc1cc(C(O)C(C)(C)C)c2nc(-c3cc(C)cc4nc(OC)cnc34)sc2c1` (stereo not drawn) [Example 637, 1-(6-methoxy-2-(2-methoxy-7-methylquinoxalin-5-yl)benzo[d]thiazol-4-yl)-2,2-dimethylpropan-1-ol] the figure was 2.1 nM.
On to `COc1cnc2c(-c3nc4c(C(O)C(C)(C)C)cc(OCCOC(=O)Nc5cncc(C#N)c5)cc4s3)cc(C)cc2n1` (stereo not drawn) [Example 638, 2-((4-(1-hydroxy-2,2-dimethylpropyl)-2-(2-methoxy-7-methylquinoxalin-5-yl)benzo[d]thiazol-6-yl)oxy)ethyl (5-cyanopyridin-3-yl)carbamate], for which the IC50 turned out to be 2.7 nM.
For the compound `COc1cc(C(O)C(C)(C)C)c2nc(-c3cc(C#N)cc4nc(OC)cnc34)sc2c1` (stereo not drawn) [Example 639, 8-(4-(1-hydroxy-2,2-dimethylpropyl)-6-methoxybenzo[d]thiazol-2-yl)-3-methoxyquinoxaline-6-carbonitrile], the half-maximal inhibitory concentration (IC50) was found to be 1.4 nM.
For `CCOc1cc(C(O)C(C)(C)C)c2nc(-c3cc(C)cc4nc(OC)cnc34)sc2c1` (stereo not drawn) [Example 640, 1-(6-ethoxy-2-(2-methoxy-7-methylquinoxalin-5-yl)benzo[d]thiazol-4-yl)-2,2-dimethylpropan-1-ol], the IC50 stood at 8 nM.
Under `COc1cc(CCO)c2nc(-c3cc(C)cc4nc(OC)cnc34)sc2c1` [Example 641, 2-(6-methoxy-2-(2-methoxy-7-methylquinoxalin-5-yl)benzo[d]thiazol-4-yl)ethanol] stands 250 nM; under `COc1cc(C(O)c2cccc(C(F)(F)F)c2)c2nc(-c3cc(C)cc4nc(OC)cnc34)sc2c1` (stereo not drawn) [Example 642, (6-methoxy-2-(2-methoxy-7-methylquinoxalin-5-yl)benzo[d]thiazol-4-yl)(3-(trifluoromethyl)phenyl)methanol], 4.6 nM.
As for `COc1cc(C(O)c2ccccc2C(C)C)c2nc(-c3cc(C)cc4nc(OC)cnc34)sc2c1` (stereo not drawn) [Example 643, (2-isopropylphenyl)(6-methoxy-2-(2-methoxy-7-methylquinoxalin-5-yl)benzo[d]thiazol-4-yl)methanol], the IC50 is 5.3 nM.
Regarding `CCOC(=O)C1(C(O)c2cc(OC)cc3sc(-c4cc(C)cc5nc(OC)cnc45)nc23)CCC1` (stereo not drawn) [Example 644, Ethyl 1-(hydroxy(6-methoxy-2-(2-methoxy-7-methylquinoxalin-5-yl)benzo[d]thiazol-4-yl)methyl)cyclobutanecarboxylate], the IC50 turned out to be 21 nM.
Take `COc1cnc2c(-c3nc4cc(F)c(O[C@@H](C)[C@@H](C)OC(=O)Nc5cnc(C)nc5)cc4s3)cc(Cl)cc2c1` [Example 645, (2R,3S)-3-((2-(6-chloro-3-methoxyquinolin-8-yl)-5-fluorobenzo[d]thiazol-6-yl)oxy)butan-2-yl (2-methylpyrimidin-5-yl)carbamate]: the IC50 came out at 4.9 nM.
In the case of `COc1cc(C(O)C2(CO)CCC2)c2nc(-c3cc(C)cc4nc(OC)cnc34)sc2c1` (stereo not drawn) [Example 646, (1-(hydroxymethyl)cyclobutyl)(6-methoxy-2-(2-methoxy-7-methylquinoxalin-5-yl)benzo[d]thiazol-4-yl)methanol], the IC50 came out at 3.8 nM.
On to `CCc1cnc2c(-c3nc4cc(F)c(O[C@@H](C)[C@@H](C)OC(=O)Nc5cnc(C)nc5)cc4s3)cc(Cl)cc2c1` [Example 647, (2R,3S)-3-((2-(6-chloro-3-ethylquinolin-8-yl)-5-fluorobenzo[d]thiazol-6-yl)oxy)butan-2-yl(2-methylpyrimidin-5-yl)carbamate], for which the IC50 stood at 19 nM.
With `COc1cnc2c(-c3nc4cc(F)c(O[C@@H](C)[C@@H](C)OC(=O)Nc5cnc(C)nc5)cc4s3)cc(C)cc2c1` [Example 648, (2R,3S)-3-((5-fluoro-2-(3-methoxy-6-methylquinolin-8-yl)benzo[d]thiazol-6-yl)oxy)butan-2-yl (2-methylpyrimidin-5-yl)carbamate] the figure was 3 nM.
Consider `CCOc1cnc2c(-c3nc4cc(F)c(O[C@@H](C)[C@@H](C)OC(=O)Nc5cnc(C)nc5)cc4s3)cc(Cl)cc2c1` [Example 649, (2R,3S)-3-((2-(6-chloro-3-ethoxyquinolin-8-yl)-5-fluorobenzo[d]thiazol-6-yl)oxy)butan-2-yl (2-methylpyrimidin-5-yl)carbamate], for which the IC50 came to 7.4 nM.

The values are drawn from patent publication US12060347B2 (BRISTOL-MYERS SQUIBB COMPANY, priority 2016, dated 2024).
